Laboratory results as given in US9550772B2, “Azaindole derivatives as multi kinase inhibitors” (ORIBASE PHARMA, priority 2012, dated 2017).
Read-outs that look alike come from different tables or passages of the source.

What was measured:
HT29 cell line = test: In vitro cell proliferation assay (MTT); assay type: cell-based; details: Homo sapiens, HT-29, HT29, 72 hr, EC50 ≧ 1 μM, read-out: EC50, anti-proliferative activity
In short: (§1)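 MTT read-out after 72 hr exposure to escalating compound, 10 nM to 3 μM, in duplicate wells. Seeding 5×10^3 cells/well for tumour lines and 1×10^4 for HRMEC; EC50 derived by sigmoidal curve fitting, DMSO wells as 0% and 1% SDS wells as 100%.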

HuCCT1 cell line = test: In vitro cell proliferation assay (MTT); assay type: cell-based; details: Homo sapiens, HuCCT-1, HuCCT1, 72 hr, EC50 ≧ 1 μM, read-out: EC50, anti-proliferative activity
In short: as §1

H1975 cell line = test: In vitro cell proliferation assay (MTT); assay type: cell-based; details: Homo sapiens, NCI-H1975, H1975, 72 hr, EC50 ≧ 1 μM, read-out: EC50, anti-proliferative activity
In short: as §1

HRMEC cells = test: In vitro cell proliferation assay (MTT); assay type: cell-based; details: 72 hr, read-out: EC50, anti-proliferative activity
In short: as §1

A549 cell line = test: In vitro cell proliferation assay (MTT); assay type: cell-based; details: Homo sapiens, A549, 72 h, read-out: EC50, anti-proliferative activity
In short: as §1

HUVEC cells = test: In vitro cell proliferation assay (MTT); assay type: cell-based; details: Homo sapiens, 72 hr, read-out: EC50, anti-proliferative activity
In short: as §1

HepG2 cell line = test: In vitro cell proliferation assay (MTT); assay type: cell-based; details: Homo sapiens, HepG2, 72 hr, read-out: EC50, anti-proliferative activity
In short: as §1

PDGFRA (PDGFR alpha) = target: T1, PDGFRA (PDGFR alpha) (Homo sapiens, UniProt P16234); test: In vitro kinase assay (Z'-LYTE, Invitrogen); assay type: biochemical; details: compound at 100 nM, ATP Km apparent, read-out: % of inhibition of the kinase compared to the control
T1 construct: purchased Invitrogen
In short: (§2)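 Compounds were tested at 100 nM in 1% DMSO, in 50 mM HEPES pH 7.5 buffer with MgCl2, EGTA and BRIJ-35, and ATP at its predetermined apparent Km. Inhibition was derived from the coupled-enzyme FRET emission ratio, which reflects protease-resistant phosphorylated peptide.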

EGFR (ErbB1) T790M L858R = target: T2, EGFR (ErbB1) T790M L858R (Homo sapiens, UniProt P00533, L858R/T790M); test: In vitro kinase assay (Z'-LYTE, Invitrogen); assay type: biochemical; details: compound at 100 nM, ATP Km apparent, read-out: % of inhibition of the kinase compared to the control
T2 construct: purchased Invitrogen
In short: as §2

KDR (VEGFR2) = target: T3, KDR (VEGFR2) (Homo sapiens, UniProt P35968); test: In vitro kinase assay (Z'-LYTE, Invitrogen); assay type: biochemical; details: compound at 100 nM, ATP Km apparent, read-out: % of inhibition of the kinase compared to the control
T3 construct: purchased Invitrogen
In short: as §2

SRC = target: T4, SRC (Homo sapiens, UniProt P12931); test: In vitro kinase assay (Z'-LYTE, Invitrogen); assay type: biochemical; details: compound at 100 nM, ATP Km apparent, read-out: % of inhibition of the kinase compared to the control
T4 construct: purchased Invitrogen
In short: as §2

FGFR2 = target: T5, FGFR2 (Homo sapiens, UniProt P21802); test: In vitro kinase assay (Z'-LYTE, Invitrogen); assay type: biochemical; details: compound at 100 nM, ATP Km apparent, read-out: % of inhibition of the kinase compared to the control
T5 construct: purchased Invitrogen
In short: as §2

EGFR (ErbB1) = target: T6, EGFR (ErbB1) (Homo sapiens, UniProt P00533); test: In vitro kinase assay (Z'-LYTE, Invitrogen); assay type: biochemical; details: compound at 100 nM, ATP Km apparent, read-out: % of inhibition of the kinase compared to the control
T6 construct: purchased Invitrogen
In short: as §2

BRAF = target: T7, BRAF (Homo sapiens, UniProt P15056); test: In vitro kinase assay (Z'-LYTE, Invitrogen); assay type: biochemical; details: compound at 100 nM, ATP Km apparent, read-out: % of inhibition of the kinase compared to the control
T7 construct: purchased Invitrogen
In short: as §2

HuH7 cell line = test: In vitro cell proliferation assay (MTT); assay type: cell-based; details: Homo sapiens, Huh-7, HuH7, 72 hr, 100 nM < EC50 < 1 μM, read-out: EC50, anti-proliferative activity
In short: as §1

MDA-MB-231 cell line = test: In vitro cell proliferation assay (MTT); assay type: cell-based; details: Homo sapiens, MDA-MB-231, 72 hr, 100 nM < EC50 < 1 μM, read-out: EC50, anti-proliferative activity
In short: as §1

HeLa cell line = test: In vitro cell proliferation assay (MTT); assay type: cell-based; details: Homo sapiens, 72 hr, 100 nM < EC50 < 1 μM, read-out: EC50, anti-proliferative activity
In short: as §1

T7 sequence (P15056 whole entry): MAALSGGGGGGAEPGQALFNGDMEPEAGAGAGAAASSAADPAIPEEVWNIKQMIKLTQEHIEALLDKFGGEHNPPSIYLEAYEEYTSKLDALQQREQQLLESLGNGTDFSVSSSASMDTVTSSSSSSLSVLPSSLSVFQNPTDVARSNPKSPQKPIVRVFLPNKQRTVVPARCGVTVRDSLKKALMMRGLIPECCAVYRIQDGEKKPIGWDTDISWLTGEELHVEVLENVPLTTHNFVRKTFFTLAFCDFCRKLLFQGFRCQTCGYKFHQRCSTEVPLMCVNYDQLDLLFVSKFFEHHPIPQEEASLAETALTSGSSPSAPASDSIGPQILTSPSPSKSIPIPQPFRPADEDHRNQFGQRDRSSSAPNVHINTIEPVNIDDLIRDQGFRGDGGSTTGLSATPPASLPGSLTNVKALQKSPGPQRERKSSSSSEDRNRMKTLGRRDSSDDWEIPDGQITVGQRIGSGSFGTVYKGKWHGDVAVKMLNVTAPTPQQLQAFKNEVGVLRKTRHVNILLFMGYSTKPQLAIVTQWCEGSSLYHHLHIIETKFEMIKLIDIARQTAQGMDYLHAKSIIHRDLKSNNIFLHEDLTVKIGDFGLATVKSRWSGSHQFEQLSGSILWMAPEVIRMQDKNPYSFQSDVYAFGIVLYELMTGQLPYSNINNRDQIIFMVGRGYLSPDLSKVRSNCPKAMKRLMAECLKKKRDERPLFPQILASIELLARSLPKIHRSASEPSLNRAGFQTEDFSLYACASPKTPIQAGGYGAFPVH
T3 sequence (P35968 20-1356): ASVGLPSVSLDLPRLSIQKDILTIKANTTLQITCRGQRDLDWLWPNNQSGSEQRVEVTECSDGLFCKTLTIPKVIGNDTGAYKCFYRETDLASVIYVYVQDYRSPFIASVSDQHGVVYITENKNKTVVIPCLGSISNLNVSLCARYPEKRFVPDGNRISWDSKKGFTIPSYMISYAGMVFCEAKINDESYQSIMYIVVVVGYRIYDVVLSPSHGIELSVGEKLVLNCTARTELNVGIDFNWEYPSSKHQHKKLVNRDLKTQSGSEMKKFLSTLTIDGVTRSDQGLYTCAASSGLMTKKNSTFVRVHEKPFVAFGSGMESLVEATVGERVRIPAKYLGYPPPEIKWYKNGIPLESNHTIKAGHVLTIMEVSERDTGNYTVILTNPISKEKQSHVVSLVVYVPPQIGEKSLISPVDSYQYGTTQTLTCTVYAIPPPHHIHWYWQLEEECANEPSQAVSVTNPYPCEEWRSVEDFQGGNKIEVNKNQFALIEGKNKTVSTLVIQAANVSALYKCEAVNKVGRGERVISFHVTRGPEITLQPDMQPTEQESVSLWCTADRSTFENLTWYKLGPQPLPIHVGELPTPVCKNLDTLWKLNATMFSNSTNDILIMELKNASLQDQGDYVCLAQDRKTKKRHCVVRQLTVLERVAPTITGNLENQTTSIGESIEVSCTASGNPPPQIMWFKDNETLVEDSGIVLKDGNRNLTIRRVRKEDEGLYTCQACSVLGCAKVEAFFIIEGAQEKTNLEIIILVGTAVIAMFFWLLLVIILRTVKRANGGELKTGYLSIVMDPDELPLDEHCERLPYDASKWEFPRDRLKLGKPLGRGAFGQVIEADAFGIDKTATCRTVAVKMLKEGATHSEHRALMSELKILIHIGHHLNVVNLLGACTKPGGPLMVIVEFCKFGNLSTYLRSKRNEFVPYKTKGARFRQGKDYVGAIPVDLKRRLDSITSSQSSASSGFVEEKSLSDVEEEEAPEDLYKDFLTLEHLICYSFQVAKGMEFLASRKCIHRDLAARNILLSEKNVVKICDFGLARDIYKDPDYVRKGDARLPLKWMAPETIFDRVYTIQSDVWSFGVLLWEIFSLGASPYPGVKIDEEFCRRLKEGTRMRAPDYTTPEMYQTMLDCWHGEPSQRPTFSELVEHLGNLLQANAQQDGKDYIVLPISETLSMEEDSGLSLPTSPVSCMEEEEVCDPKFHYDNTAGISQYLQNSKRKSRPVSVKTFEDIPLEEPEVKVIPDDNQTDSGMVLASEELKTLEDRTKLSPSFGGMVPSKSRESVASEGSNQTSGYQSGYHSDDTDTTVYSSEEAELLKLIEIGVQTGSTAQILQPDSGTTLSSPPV
T6 sequence (P00533 25-1210): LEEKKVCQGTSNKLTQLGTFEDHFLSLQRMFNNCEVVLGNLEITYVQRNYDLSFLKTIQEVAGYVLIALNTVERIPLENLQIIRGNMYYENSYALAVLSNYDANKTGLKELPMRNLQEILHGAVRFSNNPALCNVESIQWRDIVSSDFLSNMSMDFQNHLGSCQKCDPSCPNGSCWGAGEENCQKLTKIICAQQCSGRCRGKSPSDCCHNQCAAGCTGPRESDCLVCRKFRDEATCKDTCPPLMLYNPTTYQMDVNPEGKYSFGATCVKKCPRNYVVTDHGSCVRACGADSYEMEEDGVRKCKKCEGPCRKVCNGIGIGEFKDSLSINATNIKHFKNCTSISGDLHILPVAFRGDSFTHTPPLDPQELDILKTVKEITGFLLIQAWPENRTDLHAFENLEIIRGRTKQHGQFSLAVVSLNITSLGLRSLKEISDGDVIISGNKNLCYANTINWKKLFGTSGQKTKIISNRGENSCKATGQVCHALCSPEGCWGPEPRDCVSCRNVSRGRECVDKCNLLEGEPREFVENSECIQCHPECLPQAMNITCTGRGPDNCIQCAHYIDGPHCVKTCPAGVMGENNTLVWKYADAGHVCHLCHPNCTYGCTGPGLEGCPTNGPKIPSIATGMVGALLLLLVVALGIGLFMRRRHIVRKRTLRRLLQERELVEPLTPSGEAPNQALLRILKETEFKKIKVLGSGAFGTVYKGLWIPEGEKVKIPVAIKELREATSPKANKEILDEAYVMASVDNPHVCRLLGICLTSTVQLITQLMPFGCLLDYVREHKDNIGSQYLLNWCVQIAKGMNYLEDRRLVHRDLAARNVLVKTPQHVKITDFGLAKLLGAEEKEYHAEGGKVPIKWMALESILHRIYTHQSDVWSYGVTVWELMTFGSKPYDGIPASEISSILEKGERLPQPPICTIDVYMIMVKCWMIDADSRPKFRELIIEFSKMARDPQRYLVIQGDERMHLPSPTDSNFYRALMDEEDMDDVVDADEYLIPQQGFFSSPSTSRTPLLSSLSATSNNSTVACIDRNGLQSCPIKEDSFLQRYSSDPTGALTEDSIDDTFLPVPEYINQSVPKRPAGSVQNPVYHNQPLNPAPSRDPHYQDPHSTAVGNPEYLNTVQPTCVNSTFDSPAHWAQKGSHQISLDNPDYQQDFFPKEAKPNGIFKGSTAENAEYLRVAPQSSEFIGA
T4 sequence (P12931 whole entry): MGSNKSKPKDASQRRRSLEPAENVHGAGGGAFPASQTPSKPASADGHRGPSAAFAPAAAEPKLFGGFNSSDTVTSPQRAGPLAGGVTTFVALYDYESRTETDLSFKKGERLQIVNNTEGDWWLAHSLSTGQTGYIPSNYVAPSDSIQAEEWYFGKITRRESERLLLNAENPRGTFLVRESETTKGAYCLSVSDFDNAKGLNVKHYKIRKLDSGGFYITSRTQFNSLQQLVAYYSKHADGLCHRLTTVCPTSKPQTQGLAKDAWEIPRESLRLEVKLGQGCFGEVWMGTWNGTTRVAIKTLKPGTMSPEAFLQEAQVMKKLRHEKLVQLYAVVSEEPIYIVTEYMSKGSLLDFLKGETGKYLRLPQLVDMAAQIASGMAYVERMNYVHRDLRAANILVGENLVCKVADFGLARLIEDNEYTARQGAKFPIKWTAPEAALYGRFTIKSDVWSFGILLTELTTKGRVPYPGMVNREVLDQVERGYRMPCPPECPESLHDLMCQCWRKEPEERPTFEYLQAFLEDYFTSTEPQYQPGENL
T5 sequence (P21802 22-821): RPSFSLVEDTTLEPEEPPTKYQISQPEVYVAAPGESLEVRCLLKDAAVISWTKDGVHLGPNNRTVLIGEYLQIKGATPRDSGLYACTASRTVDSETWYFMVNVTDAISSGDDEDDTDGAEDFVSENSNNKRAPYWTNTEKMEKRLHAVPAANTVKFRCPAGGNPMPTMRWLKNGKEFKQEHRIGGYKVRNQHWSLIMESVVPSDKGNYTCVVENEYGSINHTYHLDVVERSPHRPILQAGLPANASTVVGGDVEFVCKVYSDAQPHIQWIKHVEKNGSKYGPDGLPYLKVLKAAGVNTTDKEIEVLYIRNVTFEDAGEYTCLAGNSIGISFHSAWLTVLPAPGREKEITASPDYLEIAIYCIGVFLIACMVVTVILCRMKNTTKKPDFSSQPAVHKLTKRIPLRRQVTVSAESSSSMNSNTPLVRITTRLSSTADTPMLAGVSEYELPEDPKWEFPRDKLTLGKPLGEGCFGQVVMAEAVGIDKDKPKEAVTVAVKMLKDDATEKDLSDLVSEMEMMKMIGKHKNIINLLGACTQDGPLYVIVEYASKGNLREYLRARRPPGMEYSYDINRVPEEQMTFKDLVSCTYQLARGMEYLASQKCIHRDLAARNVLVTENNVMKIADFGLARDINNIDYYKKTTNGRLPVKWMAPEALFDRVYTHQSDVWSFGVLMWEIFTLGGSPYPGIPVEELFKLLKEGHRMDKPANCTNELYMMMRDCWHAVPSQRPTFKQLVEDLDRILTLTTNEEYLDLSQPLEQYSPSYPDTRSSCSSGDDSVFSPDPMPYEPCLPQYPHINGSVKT

COC(=O)c1cc2cc(CNc3cc(NC(=O)c4ccc(CN5CCN(C)CC5)cc4)ccc3C)cnc2[nH]1 [OR0746, 5-({2-Methyl-5-[4-(4-methyl-piperazin-1-ylmethyl)-benzoylamino]-phenylamino}-methyl)-1H-pyrrolo[2,3-b]pyridine-2-carboxylic acid methyl ester]
EC50 (HT29 cell line): ≥ 1 µM | EC50 (HuCCT1 cell line): ≥ 1 µM | EC50 (H1975 cell line): ≥ 1 µM | EC50 (HRMEC cells; EC50 ≧ 1 μM): ≥ 1 µM | EC50 (A549 cell line; EC50 ≧ 1 μM): ≥ 1 µM | EC50 (HUVEC cells; EC50 ≧ 1 μM): ≥ 1 µM | EC50 (HepG2 cell line; EC50 ≧ 1 μM): ≥ 1 µM | inhibition at 0.1 µM (PDGFRA (PDGFR alpha)): ≥ 50% | inhibition at 0.1 µM (EGFR (ErbB1) T790M L858R): < 50% | inhibition at 0.1 µM (KDR (VEGFR2)): < 50% | inhibition at 0.1 µM (SRC): < 50% | inhibition at 0.1 µM (FGFR2): < 50% | inhibition at 0.1 µM (EGFR (ErbB1)): ≥ 50% | inhibition at 0.1 µM (BRAF): < 50%

COC(=O)c1cc2cc(COc3cc(NC(=O)c4ccc(CN5CCN(C)CC5)cc4)ccc3C)cnc2[nH]1 [OR0779, 5-{2-Methyl-5-[4-(4-methyl-piperazin-1-ylmethyl)-benzoylamino]-phenoxymethyl}-1H-pyrrolo[2,3-b]pyridine-2-carboxylic acid methyl ester]
EC50 (HT29 cell line): ≥ 1 µM | EC50 (HuCCT1 cell line): ≥ 1 µM | EC50 (H1975 cell line): ≥ 1 µM | EC50 (HRMEC cells; EC50 ≧ 1 μM): ≥ 1 µM | EC50 (A549 cell line; EC50 ≧ 1 μM): ≥ 1 µM | EC50 (HUVEC cells; EC50 ≧ 1 μM): ≥ 1 µM | EC50 (HepG2 cell line; EC50 ≧ 1 μM): ≥ 1 µM | inhibition at 0.1 µM (PDGFRA (PDGFR alpha)): ≥ 50% | inhibition at 0.1 µM (EGFR (ErbB1) T790M L858R): < 50% | inhibition at 0.1 µM (KDR (VEGFR2)): ≥ 50% | inhibition at 0.1 µM (SRC): ≥ 50% | inhibition at 0.1 µM (FGFR2): < 50% | inhibition at 0.1 µM (EGFR (ErbB1)): ≥ 50% | inhibition at 0.1 µM (BRAF): < 50%

CC(=O)c1cc2cc(CCc3cc(NC(=O)c4ccc(CN5CC[C@H](N(C)C)C5)c(C(F)(F)F)c4)ccc3C)cnc2[nH]1 [OR0812, N-{3-[2-(2-Acetyl-1H-pyrrolo[2,3-b]pyridin-5-yl)-ethyl]-4-methyl-phenyl}-4-((S)-3-dimethylamino-pyrrolidin-1-ylmethyl)-3-trifluoromethyl-benzamide]
EC50 (HuH7 cell line): 0.1 to 1 µM | EC50 (HT29 cell line): ≥ 1 µM | EC50 (H1975 cell line): ≥ 1 µM | EC50 (MDA-MB-231 cell line): 0.1 to 1 µM | EC50 (HeLa cell line): 0.1 to 1 µM | EC50 (HRMEC cells; 100 nM < EC50 < 1 μM): 0.1 to 1 µM | EC50 (A549 cell line; EC50 ≦ 100 nM): ≤ 0.1 µM | EC50 (HUVEC cells; 100 nM < EC50 < 1 μM): 0.1 to 1 µM | EC50 (HepG2 cell line; 100 nM < EC50 < 1 μM): 0.1 to 1 µM | inhibition at 0.1 µM (PDGFRA (PDGFR alpha)): ≥ 50% | inhibition at 0.1 µM (KDR (VEGFR2)): ≥ 50% | inhibition at 0.1 µM (SRC): ≥ 50% | inhibition at 0.1 µM (FGFR2): ≥ 50% | inhibition at 0.1 µM (EGFR (ErbB1)): ≥ 50% | inhibition at 0.1 µM (BRAF): ≥ 50%
